Assay results from US20260018245A1, “SYSTEMS AND METHODS FOR IDENTIFYING AND TARGETING COLLATERAL LETHAL GENES” (The Regents of the University of Michigan, priority 2022, published 2026).

Legend:
Type in all cases: cell-based
[1] = system: SKOV3 cells expressing shScramble or shUQCR11; test: Viability of isogenic SKOV3 lines expressing shScramble or shUQCR11 treated with MTHFD2 inhibitor; conditions: SKOV3 cells with UQCR11 knocked down vs shScramble
Description: FIG. 2 Multi-objective metabolic flux analysis identifies MTHFD2 as a collateral lethal target in UQCR11-null ovarian cancers with in vitro, clinical and pan-cancer implications. a, Workflow elucidating multi-objective flux analysis algorithm comparing flux distributions of cancers with and without deletions for identification of collateral lethal pathways. b, Multi-objective metabolic Pareto frontier and metabolic fluxes of MTHFD1, MTHFD2, RNA and DNA syntheses in UQCR11-null and -intact models. Radar plots represent Pareto-optimal flux distributions from maximal biomass to maximal ATP maintenance (counterclockwise). c, mRNA expression of UQCR11 and MTHFD2 in parental ovarian cancer cell lines. Data presented as mean±s.d. (n=6), analysed using two-tailed Student's t-test. d, Protein expression of MTHFD2 and UQCR11. Representative immunoblots with β-actin as loading control. e, Cell viability after dox-induced shMTHFD2 knockdown. […] (n=3), analysed using two-way analysis of variance (ANOVA) with Dunn's correction. f, Viability of parental ovarian cancer lines treated with MTHFD2 inhibitor. […] Data analysed pairwise by log-rank test. k, Overall survival of patients with UCEC and low UQCR11 (bottom quartile) expression and high (top quartile) expression of MTHFD2 compared with patients with low UQCR11 and MTHFD2 (bottom quartile) expression. Data analysed by log-rank test. […]

SKOV3 and OVCAR8 cells = test: De novo pyrimidine synthesis flux with [13C4]-aspartate tracer; conditions: SKOV3 and OVCAR8, with vs without MTHFD2 inhibitor
[2] = system: oxidative MTHFD2 flux in SKOV3 cells; test: Oxidative MTHFD2 flux by 4-[2H]-glucose tracing; conditions: SKOV3 treated with rotenone and MTHFD2 inhibitor 60 μM
Description: FIG. 4 Dynamic flux analysis with parallel tracers to quantify oxidative MTHFD2 flux. a, Oxidative MTHFD2 flux and percentage decrease in OCRfollowing MTHFD2 inhibition in SKOV3 cells treated with rotenone (0, 31, 62, 125, 250, 500 or 1,000 nM) and MTHFD2 inhibitor (0 or 60 μM). Oxidative MTHFD2 flux is proportional to [2H1]-serine/[2H1]-NADH enrichment in cells cultured with 4-[2H]-glucose for 8 h. Percentage decrease in OCR is estimated in SKOV3 cells treated with 60 μM MTHFD2i compared with 0 μM MTHFD2i. Oxidative flux data are combined from two independent experiments (n=4), with mean±s.d. estimated using error propagation. […] (n=6) and analysed using two-tailed Welch's t-test. e, Ratio of [2H2]-serine/[2H]-NADH enrichment in SKOV3 and OVCAR8 cells at 2 h after combined tracer introduction of 4-[2H]-glucose and [2H]-formate, representing the normalized contribution of [2H]-NADH to [2H2]-serine via oxidative MTHFD2 flux. Data combined from two independent experiments (n=6), with mean±s.d. estimated using error propagation and analysed by two-tailed Welch's t-test. f, [2H2]-serine enrichment in SKOV3 cells expressing shScramble or shUQCR11 at 2 h after combined tracer introduction of 4-[2H]-glucose and [2H]-formate. […] (n=5) and analysed using one-tailed non-parametric Mann-Whitney test. […]

Cc1c(N2CCN(C)[C@@H](C)C2)ccc2c3c(c(=O)oc12)CN(C(=O)c1ccc(NS(C)(=O)=O)c(OC(F)(F)F)c1)CC3 [DS18561882]
GISO concentrations [1]: significantly reduced | de novo pyrimidine synthesis flux (SKOV3 and OVCAR8 cells): similarly reduced | oxidative MTHFD2 flux [2]: suppressed
